Target: T1, L858R mutant EGFR (Homo sapiens, UniProt P00533, L858R)
T1 construct: Constructs spanning residues 696-1022 of the human EGFR; GST (cleaved yes); made in house; host or cells: Sf9 insect cells
Experiment: HTRF-based EGFR biochemical assay
Details: relative to L858R/T790M and T790M mutants
Description: EGFR biochemical assays are carried out using a homogeneous time-resolved fluorescence (HTRF) assay. The reaction mixtures contain biotin-Lck-peptide substrate, wild type, or mutant EGFR enzyme in reaction buffer. Enzyme concentrations are adjusted to accommodate varying kinase activity and ATP concentrations. Compounds of the present disclosure are diluted into the assay mixture and IC50 values are determined using 12-point inhibition curves.
Constructs spanning residues 696-1022 of the human EGFR (including wild type and L858R, L858R/T790M, T790M, and T790M/V948R mutant sequences) were prepared in a GST-fusion format using the pTriEX system (Novagen) for expression in Sf9 insect cells essentially as described. […]
EGFR biochemical assays were carried out using a homogeneous time-resolved fluorescence (HTRF) assay as described previously. […] Five μL per well of the detection reagent containing 2.5 ng PT66K (Cis-bio) and 0.05 μg SAXL (Prozyme) were added, and the plates were then incubated at room temperature for 1 hour and read with an EnVision plate reader.

T1 sequence (P00533 696-1022 L858R): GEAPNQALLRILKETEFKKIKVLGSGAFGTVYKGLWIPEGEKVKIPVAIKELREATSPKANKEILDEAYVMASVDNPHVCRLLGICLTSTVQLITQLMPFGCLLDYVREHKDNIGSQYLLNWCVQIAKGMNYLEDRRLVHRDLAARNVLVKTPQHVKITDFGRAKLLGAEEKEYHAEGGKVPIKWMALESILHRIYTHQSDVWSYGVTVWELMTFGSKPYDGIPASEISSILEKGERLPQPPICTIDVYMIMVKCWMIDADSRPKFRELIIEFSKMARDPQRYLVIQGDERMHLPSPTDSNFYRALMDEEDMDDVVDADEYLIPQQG

O=C(Nc1nccs1)C(c1ccccc1)N1Cc2ccccc2C1=O (stereo not shown) [Compound A1]
decreased potency against L858R mutant EGFR: approximately 2 fold
